Experimental findings from patent US20240173372A1 (IMDpharm Inc., priority 2021, published 2024) are described below.

For orientation: EC50 means the concentration giving half of the maximal effect.

Converted amounts (≈) assume the structure as drawn.

For this experiment, the system named is House Ear Institute-Organ of Corti 1 (HEI-OC1) auditory hair cell. Description: Apoptosis inhibitory effect on auditory cell line treated with hydrogen peroxide (MTT analysis). It counts as cell-based, mice. To be noted: Mus musculus, HEI-OC1, 100 μM hydrogen peroxide, read-out: EC50 (apoptosis inhibitory effect, hair cells). As to the method: House Ear Institute-Organ of Corti 1 (HEI-OC1), an auditory hair cell derived from the Organ of Corti which is the auditory generation organ in mice, was cultured in an incubator at 33° C. in the presence of 10% CO2 using DMEM (high-glucose Dulbecco's Eagle's medium, Sigma-Aldrich Co., St. Louis, USA) culture including 10% fetal bovine serum (FBS; WELGENE Inc., Gyeongsangbuk-do, Korea) and 50 U/mL INF-γ (Peprotech Inc., Seoul, Korea) without addition of antibiotics. In order to generate reactive oxygen species (ROS) caused by oxidative stress that occurs in the process of inducing noise induced hearing loss, cell lines with noise induced hearing loss were established by treating hydrogen peroxide.

For `COc1cccc(CCc2ccccc2OCC(CN(C)C)OC(=O)CCC(=O)O)c1` (single isomer, unassigned; (-)) [sarpogrelate, (−)-4-[1-dimethylamino-3-[2-[2-(3-methoxyphenyl)ethyl]phenoxy]propan-2-yl]oxy-4-oxobutanoic acid], the EC50 was 26.4 µg/mL (≈ 61.5 µM).
